Entries after “also recorded” stand apart in the source; their conditions may differ.
Tests used:
[1] = test system: cytokines IL-12p70, IL-4 and IFN-g; experiment: Cytokine release into serum after injection (cytokine bead array); assay type: in vivo, C57BL/6 mice; conditions: for cytokine profile in vivo compared to α-GalCer: 200 ng i.v. or molar equivalent
Description: (§1) Groups of C57BL/6 mice (n=3 per group) are injected intravenously with 200 ng of the indicated compounds, and then the serum is collected at the indicated times for analysis of cytokine levels by cytokine bead array technology.
as §1, with “ng of α-GalCer or an equivalent molar amount” for “ng”, “technology. (Compound CN158A1b=CN158 formulated in accordance with Example 15; Compound CN158A=CN158 in water.)” for “technology.”
Blood is collected from the lateral tail vein at different time intervals after glycolipid administration. Serum is collected after blood has clotted, and levels of cytokines IL-12p70, IL-4 and IFN-g are assessed by cytokine bead array technology (Bioplex, Biorad), according to the manufacturer's instructions.

Water solubility = assay type: physicochemical
[2] = HPLC-ESI-MSMS quantification of α-GalCer in test samples; assay type: physicochemical
Description: Quantification of the amount of α-GalCer in various test samples of compounds of the invention is made by HPLC-ESI-MSMS analysis using a Waters 2795 HPLC and a Waters Q-TOF Premier™ Tandem Mass Spectrometer. The chromatography used a Phenomenex Kinetex C18 […] 3.0×50 mm column eluting with isocratic methanol containing 10 mM ammonium formate+0.5% formic acid at a flow rate of 0.2 mL/min. α-GalCer is monitored by selective reactant monitoring of 858.7 to 696.7 Da. The estimate of amount of α-GalCer is made by comparison of ion count integrals to a standard curve run on the same day or by comparison to test samples spiked with a known amount of α-GalCer.
The level of α-GalCer is determined on freshly reconstituted formulated samples unless otherwise stated. The estimated maximum level of α-GalCer for key compounds is given below.

[3] = test system: SIINFEKL-specific T cells; experiment: Peptide-specific T cell proliferation in vivo (adjuvant with OVA); design: species or system C57BL/6 mice; conditions: co-administered i.v. with OVA, molar dose equivalent to α-GalCer, blood after seven days
Description: The compounds are injected to give the equivalent molar dose as compared to α-GalCer. To increase sensitivity of the assay, all mice are initially donated a cohort of 10,000 SIINFEKL-specific T cells from a transgenic mouse encoding a T cell receptor for this antigen (OT-1 mice), which is undertaken by intravenous injection of the cells one day before the vaccines are administered. […] It is therefore possible to enumerate SIINFEKL-specific T cells in blood by flow cytometry using antibodies for CD45.1 together with antibodies for the transgenic T cell receptor (Vα2). […] Control animals are injected with the diluent phosphate-buffered saline (PBS). Each dot represents a different animal; mean per treatment group±SEM are presented. ***p<0.001, ** p<0.01, * p<0.05.
Pooled lymph node cell suspensions are prepared from animals of a cross between OT-I mice, which express a transgenic T cell receptor (TCR) specific for the ovalbumin epitope SIINFEKL in the context of H-2K^b molecules, and B6.SJL-Ptprc^a Pepc^b/BoyJ mice, which are congenic with C57BL/6 mice for the CD45.1^+ marker. The samples are enriched for CD8^+ cells using antibody coated magnetic beads (Miltenyi), and then transferred into C57BL/6 mice (1×10^4 per mouse). Groups of recipient animals (n=5) are immunized with compounds of the invention one day later. Doses are chosen to provide equivalent molar values of SIINFEKL peptide. […]

B16.OVA melanoma cells = experiment: Anti-tumour activity against subcutaneous B16.OVA tumours, given with OVA protein; assay type: in vivo, C57BL/6 mice; conditions: i.v. with 200 μg OVA protein seven days after tumour challenge
Description: Progression of subcutaneous B16.OVA tumours is monitored in animals that are treated seven days after tumour challenge with intravenous OVA protein together with the indicated compounds, or treated with PBS. The mean tumour sizes per group (n=5)±SEM are shown.
Progression of subcutaneous B16.OVA tumours is monitored in animals that are treated seven days after tumour challenge with intravenous OVA protein together with the indicated compounds, or treated with PBS. The mean tumour sizes per group (n=5)±SEM are shown. […] (Compound CN158A=CN158 in water.)
Groups of C57BL/6 mice (n=5) receive a subcutaneous injection into the flank of 1×10^5 B16.OVA melanoma cells, which express a cDNA encoding the chicken ovalbumin (OVA) sequence. The different groups are treated 7 days later, when tumours are fully engrafted, by intravenous injection of one of the following; 200 μg OVA protein together with 200 ng α-GalCer, 200 μg OVA protein together with 200 ng of a compound of the invention, or PBS. Mice are monitored for tumour growth every 3-4 days, and tumour size for each group is calculated as the mean of the products of bisecting diameters (±SEM). Measurements are terminated for each group when the first animal develops a tumour exceeding 200 mm^2.

[4] = test system: NKT cells / CD11c+ dendritic cells; experiment: CD86 expression on splenic dendritic cells after injection (DC activation as measure of NKT cell activation); assay type: in vivo, C57BL/6 mice; conditions: 200 ng i.v. (FIG. 7: molar equivalent of 200 ng α-GalCer), spleens removed 20 h later, flow cytometry
Description: (§2) Groups of C57BL/6 mice (n=3) are injected intravenously with 200 ng of the indicated compounds and then the spleens are removed 20 h later for the analysis of CD86 expression on CD11c+ dendritic cells by antibody labelling and flow cytometry. Mean fluorescence index±SEM are presented.
as §2, with “200 ng of α-GalCer or an equivalent molar amount of the” for “200 ng of the”, “are presented. (Compound CN158A1b=CN158 formulated in accordance with Example 15. Compound CN158A=CN158 in water.)” for “are presented.”
Each compound of the invention is supplied as formulated product (see example 12), and diluted in phosphate-buffered saline (PBS) for injection (200 ng/mouse) by intravenous injection into the lateral tail vein. In humans the expected therapeutic dose lies in the 50-4800 (μg/m^2) range (Giaccone, Punt et al. 2002). Note, 200 ng in a mouse is a human equivalent dose of 30 μg/m^2.
All antibody labeling is performed on ice in FACS buffer (PBS supplemented with 1% FCS, 0.05% sodium azide, and 2 mM EDTA). Non-specific FcR-mediated antibody staining is blocked by incubation for 10 min with anti-CD16/32 Ab (24G2, prepared in-house from hybridoma supernatant). […]

[5] = literature statement; cited from earlier work
[6] = freshly reconstituted formulated sample, estimated maximum level
[7] = non-formulated / unformulated sample (CN158*: aqueous solution)

Compound	cytokine profile in vivo compared to α-GalCer ([1]; FIGS. 3 and 8)	water solubility (Water solubility) [mg/mL]	Max α-GalCer (ppm) [2, 6]	Max α-GalCer/injection [2, 6] [ng]	SIINFEKL-specific T cell response in blood (adjuvant activity) [3]	anti-tumour activity: growth of established B16.OVA tumours (B16.OVA melanoma cells)	Max α-GalCer (ppm) [2, 7]	Max α-GalCer/injection [2, 7] [ng]	further results
(2S,3S,4R)-1-O-α-D-Galactopyranosyl-4-hexacosanoyl-2-((4-(2-methoxy(poly(2-ethoxy))imino)pentanoyloxy)methoxycarbonylamino) octadecane-1,3,4-triol [CN147]	different cytokine profiles	~0.5	615 ppm	0.123	–	–	–	–	course of IL-12p70 level in serum ([1]; 200 ng i.v., FIG. 3): still increasing through 6 to 12 h; ratio of IFN-γ to IL-4 in serum compared to α-GalCer ([1]; 200 ng i.v., FIG. 3): higher ratio of IFN-γ to IL-4 than that of α-GalCer
(2S,3S,4R)-1-O-α-D-Galactopyranosyl-4-hexacosanoyl-2-((4-(ω-methoxy(poly(ethyleneoxy))imino)pentanoyloxy)methyleneoxycarbonylamino) octadecane-1,3,4-triol [CN158]	different cytokine profiles	~38	180 ppm	0.25	induces a similar T cell expansion	provides therapeutic anti-tumour activity	170 ppm	0.24	overall levels of systemic cytokine production ([1]; 200 ng α-GalCer or equivalent i.v., FIGS. 3 and 8): no systemic cytokines are detected; also recorded: No detectable cytokines are observed
CCCCCCCCCCCCCCCCCCCCCCCCCC(=O)O[C@H](CCCCCCCCCCCCCC)[C@@H](O)[C@@H](N)CO[C@H]1O[C@H](CO)[C@H](O)[C@H](O)[C@H]1O [CN089, (2S,3S,4R)-2-Amino-1-O-α-D-galactopyranosyl-4-O-hexacosanoyl octadecane-1,3,4-triol]	–	–	–	–	–	–	–	–	DC activation: CD86 expression on splenic CD11c+ dendritic cells [4]: potently activates DCs; conversion of CN089 to α-GalCer after formulation ([2]; within 1 hour of formulation, LCMSMS): approximately 50%
CCCCCCCCCCCCCCCCCCCCCCCCCC(=O)N[C@@H](CO[C@H]1O[C@H](CO)[C@H](O)[C@H](O)[C@H]1O)[C@H](O)[C@H](O)CCCCCCCCCCCCCC [α-GalCer, α-Galactosylceramide, reference compound]	–	–	–	–	induces a population of SIINFEKL-specific T cells	provides therapeutic anti-tumour activity	–	–	time of peak IFN-γ level in serum ([1]; after injection, mice): 12 h; time of peak IL-4 level in serum ([1]; after injection, mice): 2 to 3 h; time of peak IL-12p70 level in serum ([1]; after injection, mice): 6 h; water solubility (in words) [5]: low water solubility; also recorded: poor solubility
CCCCCCCCCCCCCCCCCCCCCCCCCC(=O)O[C@H](CCCCCCCCCCCCCC)[C@@H](O)[C@H](CO[C@H]1O[C@H](CO)[C@H](O)[C@H](O)[C@H]1O)NC(=O)OCOP(=O)(O)O [CN131, (2S,3S,4R)-1-O-α-D-Galactopyranosyl-4-O-hexacosanoyl-2-phosphoryloxymethoxycarbonylamino octadecane-1,3,4-triol]	–	–	–	–	–	–	6,000 (analysis on non- ppm	1.2	–
CCCCCCCCCCCCCCCCCCCCCCCCCC(=O)O[C@H](CCCCCCCCCCCCCC)[C@@H](O)[C@H](CO[C@H]1O[C@H](CO)[C@H](O)[C@H](O)[C@H]1O)NC(=O)OCOC(C)=O [CN136, (2S,3S,4R)-2-Acetoxymethoxycarbonylamino-1-O-α-D-galactopyranosyl-4-O-hexacosanoyl octadecane-1,3,4-triol]	–	–	1,000 ppm	0.2	–	–	–	–	–

From US9586985B2, “Organic compounds as proantigens for natural killer T cells” (Callaghan Innovation Research Limited, priority 2012, dated 2017)
